Measured values: PubChem BioAssay AID248 (DTP/NCI, 2004)
Several values for one entry are separate records, joined by “and”; a condition that tells them apart may be missing. Identical values can stand only once. Toxic doses and inconclusive results are not listed. Rule as the data show it: active = T/C of 150% or more; inactive = T/C below 125%.

Tested on: L1210 leukemia ip in BDF1 mice, survival T/C
Assay: NCI In Vivo Anticancer Drug Screen. Data for tumor model L1210 Leukemia (intraperitoneal) in B6D2F1 (BDF1) mice
Conditions: endpoint: mean survival time, higher = longer survival
Outline: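 In this screen, tumor-bearing mice given compound are compared to those given vehicle, and their survival values are reported as a treated-to-control quotient.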

[1] = dose: 100.0 mg/kg/injection, schedule: Q01DX001 (ip), vehicle: Klucel (hydroxypropylcellulose) (HPC)
[2] = dose: 200.0 mg/kg/injection, schedule: Q01DX001 (ip), vehicle: Klucel (hydroxypropylcellulose) (HPC)
[3] = dose: 400.0 mg/kg/injection, schedule: Q01DX001 (ip), vehicle: Klucel (hydroxypropylcellulose) (HPC)
[4] = dose: 100.0 mg/kg/injection, schedule: Q01DX009 (ip), vehicle: Klucel (hydroxypropylcellulose) (HPC)
[5] = dose: 100.0 mg/kg/injection, schedule: Q04DX003 (ip), vehicle: Klucel (hydroxypropylcellulose) (HPC)
[6] = dose: 200.0 mg/kg/injection, schedule: Q01DX009 (ip), vehicle: Klucel (hydroxypropylcellulose) (HPC)
[7] = dose: 200.0 mg/kg/injection, schedule: Q04DX003 (ip), vehicle: Klucel (hydroxypropylcellulose) (HPC)
[8] = dose: 400.0 mg/kg/injection, schedule: Q01DX009 (ip), vehicle: Klucel (hydroxypropylcellulose) (HPC)
[9] = dose: 400.0 mg/kg/injection, schedule: Q04DX003 (ip), vehicle: Klucel (hydroxypropylcellulose) (HPC)
[10] = dose: 100.0 mg/kg/injection, schedule: Q04DX003 (ip), vehicle: saline
[11] = dose: 200.0 mg/kg/injection, schedule: Q04DX003 (ip), vehicle: saline
[12] = dose: 400.0 mg/kg/injection, schedule: Q04DX003 (ip), vehicle: saline
[13] = dose: 100.0 mg/kg/injection, schedule: Q04DX003 (ip), vehicle: saline with Tween-80
[14] = dose: 200.0 mg/kg/injection, schedule: Q04DX003 (ip), vehicle: saline with Tween-80
[15] = dose: 400.0 mg/kg/injection, schedule: Q04DX003 (ip), vehicle: saline with Tween-80
[16] = dose: 50.0 mg/kg/injection, schedule: Q04DX003 (ip), vehicle: saline
[17] = dose: 100.0 mg/kg/injection, schedule: Q01DX009 (ip), vehicle: saline with Tween-80
[18] = dose: 200.0 mg/kg/injection, schedule: Q01DX009 (ip), vehicle: saline with Tween-80
[19] = dose: 6.25 mg/kg/injection, schedule: Q01DX009 (ip), vehicle: saline
[20] = dose: 12.5 mg/kg/injection, schedule: Q01DX009 (ip), vehicle: saline
[21] = dose: 25.0 mg/kg/injection, schedule: Q04DX003 (ip), vehicle: saline
[22] = dose: 100.0 mg/kg/injection, schedule: Q01DX001 (ip), vehicle: saline
[23] = dose: 200.0 mg/kg/injection, schedule: Q01DX001 (ip), vehicle: saline
[24] = dose: 400.0 mg/kg/injection, schedule: Q01DX001 (ip), vehicle: saline

Measured: T/C

Cc1cc(C)c(S(=O)(=O)c2ccc([N+](=O)[O-])c3ccccc23)c(C)c1
inactive: [1] 107 % of control | [2] 91 % of control | [3] 101 % of control

CN(C)c1ccc(C(=O)C(O)c2ccccc2)cc1 (configuration not stated)
inactive: [4] 92 % of control | [5] 98 % of control | [6] 88 % of control | [7] 100 % of control | [8] 88 % of control | [9] 96 % of control

CCC(C)C(C(=O)OC1CCN(CC)CC1)c1ccccc1 (configuration not stated)
inactive: [10] 94 % of control

S=C1NC2(CCCCC2)NC12CCCCC2
inactive: [4] 97 % of control | [5] 101 % of control | [6] 98 % of control | [7] 103 % of control | [8] 93 % of control | [9] 101 % of control

O=C1OC2(c3ccc(O)cc3Oc3cc(O)ccc32)C2C3C=CC(C3)C12 (configuration not stated)
inactive: dose: 50.0 mg/kg/injection, schedule: Q01DX009 (ip), vehicle: Klucel (hydroxypropylcellulose) (HPC) 98 % of control | [4] 104 % of control | [10] 98 % of control | [6] 97 % of control | [11] 92 % of control | [12] 95 % of control

Clc1ccc(/C=N/Nc2nc3ccccc3s2)c(Cl)c1
inactive: [13] 93 % of control | dose: 111.0 mg/kg/injection, schedule: Q01DX Z (ip), vehicle: methylcellulose (MC) 105 % of control | dose: 166.0 mg/kg/injection, schedule: Q01DX Z (ip), vehicle: methylcellulose (MC) 98 % of control | [14] 93 % of control | dose: 250.0 mg/kg/injection, schedule: Q01DX Z (ip), vehicle: methylcellulose (MC) 103 % of control | [15] 93 % of control

O=C(O)CN(Cc1ccccc1)Sc1ccccc1[N+](=O)[O-]
inactive: dose: 50.0 mg/kg/injection, schedule: Q01DX009 (ip), vehicle: other 98 % of control | dose: 100.0 mg/kg/injection, schedule: Q01DX009 (ip), vehicle: other 91 % of control | dose: 100.0 mg/kg/injection, schedule: Q04DX003 (ip), vehicle: other 98 % of control | dose: 200.0 mg/kg/injection, schedule: Q04DX003 (ip), vehicle: other 96 % of control

CSc1nc2ncnn2c(=O)[nH]1
inactive: [16] 96 % of control | [10] 94 % of control | [11] 100 % of control | [12] 92 % of control

O=[N+]([O-])c1ccc2c(c1[N+](=O)[O-])CCCC2
inactive: [17] 93 % of control | [13] 93 % of control | [18] 98 % of control | [14] 93 % of control | dose: 400.0 mg/kg/injection, schedule: Q01DX009 (ip), vehicle: saline with Tween-80 98 % of control | [15] 98 % of control

NCC(=O)O
inactive: dose: 100.0 mg/kg/injection, schedule: Q01DX001 (ip), vehicle: carboxymethylcellulose (CMC) 100 % of control | dose: 200.0 mg/kg/injection, schedule: Q01DX001 (ip), vehicle: carboxymethylcellulose (CMC) 92 % of control | dose: 400.0 mg/kg/injection, schedule: Q01DX001 (ip), vehicle: carboxymethylcellulose (CMC) 100 % of control

Cc1nc(C#N)c(C#N)nc1C
inactive: dose: 6.25 mg/kg/injection, schedule: Q01DX009 (ip), vehicle: Klucel (hydroxypropylcellulose) (HPC) 96 % of control | dose: 12.5 mg/kg/injection, schedule: Q01DX009 (ip), vehicle: Klucel (hydroxypropylcellulose) (HPC) 98 % of control | dose: 12.5 mg/kg/injection, schedule: Q04DX003 (ip), vehicle: Klucel (hydroxypropylcellulose) (HPC) 101 % of control | dose: 25.0 mg/kg/injection, schedule: Q04DX003 (ip), vehicle: Klucel (hydroxypropylcellulose) (HPC) 100 % of control

CC(C)n1cc(C(=O)c2ccccc2)cc1-c1ccccc1
inactive: dose: 100.0 mg/kg/injection, schedule: Q04DX002 (ip), vehicle: saline with Tween-80 93 % of control | dose: 200.0 mg/kg/injection, schedule: Q04DX002 (ip), vehicle: saline with Tween-80 89 % of control | dose: 400.0 mg/kg/injection, schedule: Q04DX002 (ip), vehicle: saline with Tween-80 97 % of control

CC(=O)Oc1cc(NC(=O)c2ccccc2)ccc1NC(=O)c1ccccc1
inactive: [1] 93 % of control | [4] 89 % of control | [2] 92 % of control | [6] 90 % of control | [3] 104 % of control | [8] 100 % of control

O=C1CCC(=O)N1
inactive: [5] 103 % of control | [7] 102 % of control | [9] 100 % of control

CC1C2CCC(C2)C1(C)C (configuration not stated)
inactive: [1] 93 % of control | [2] 100 % of control | [3] 102 % of control

COc1cc2c(cc1O)CCN(C)C2Cc1ccc(OC)c(OC)c1 (configuration not stated)
inactive: dose: 75.0 mg/kg/injection, schedule: Q01DX001 (ip), vehicle: carboxymethylcellulose (CMC) 95 % of control | dose: 150.0 mg/kg/injection, schedule: Q01DX001 (ip), vehicle: carboxymethylcellulose (CMC) 94 % of control

Cc1ccc(C(C)C)c(OCCNC2=NCCN2)c1
inactive: [19] 97 % of control | dose: 6.25 mg/kg/injection, schedule: Q04DX003 (ip), vehicle: saline 97 % of control | [20] 104 % of control | dose: 12.5 mg/kg/injection, schedule: Q04DX003 (ip), vehicle: saline 92 % of control | dose: 25.0 mg/kg/injection, schedule: Q01DX009 (ip), vehicle: saline 97 % of control | [21] 97 % of control

CCOC(=O)CNS(=O)(=O)c1ccccc1
inactive: [22] 98 % of control | [23] 101 % of control | [24] 101 % of control

NS(=O)(=O)c1cc[n+]([O-])c2ccccc12
inactive: dose: 100.0 mg/kg/injection, schedule: Q01DX001 (ip), vehicle: saline with Tween-80 97 % of control | [17] 96 % of control | dose: 200.0 mg/kg/injection, schedule: Q01DX001 (ip), vehicle: saline with Tween-80 97 % of control | [18] 94 % of control | dose: 400.0 mg/kg/injection, schedule: Q01DX001 (ip), vehicle: saline with Tween-80 96 % of control

CCCCCCCCc1ccc(NC(N)=S)cc1
inactive: dose: 3.12 mg/kg/injection, schedule: Q01DX009 (ip), vehicle: saline 104 % of control | [19] 107 % of control | dose: 12.5 mg/kg/injection, schedule: Q01DX009 (ip), vehicle: saline with Tween-80 92 % of control | [20] 111 % of control

NC(=O)Cn1cnc2c(Cl)ncnc21
inactive: [13] 104 % of control | [14] 102 % of control | [15] 120 % of control

C/C(CCCCl)=N/NC(N)=S
inactive: [19] 98 % of control | dose: 6.25 mg/kg/injection, schedule: Q04DX003 (ip), vehicle: saline with Tween-80 98 % of control | [20] 107 % of control | dose: 12.5 mg/kg/injection, schedule: Q04DX003 (ip), vehicle: saline with Tween-80 92 % of control | dose: 25.0 mg/kg/injection, schedule: Q04DX003 (ip), vehicle: saline with Tween-80 90 % of control | dose: 100.0 mg/kg/injection, schedule: Q01DX001 (ip), vehicle: acetone 100 % of control | dose: 200.0 mg/kg/injection, schedule: Q01DX001 (ip), vehicle: acetone 90 % of control

Nc1ccc(Cl)nc1
inactive: dose: 50.0 mg/kg/injection, schedule: Q01DX001 (ip), vehicle: saline 98 % of control | [22] 98 % of control | [23] 102 % of control | [24] 96 % of control

CCCCCCCCn1nnnc1-c1nnn(C)n1
inactive: [4] 106 % of control | [6] 104 % of control | [8] 101 % of control

CC[N+](C)(CC)CCOc1cc(C)ccc1C(C)C
inactive: [21] 104 % of control | [16] 98 % of control | [10] 93 % of control and 98 % of control

CC(O)[CH2][Sb]([Br])([Br])([c]1ccccc1)[c]1ccccc1 (configuration not stated)
inactive: dose: 5.0 mg/kg/injection, schedule: Q04DX002 (ip), vehicle: saline with Tween-80 97 % of control | dose: 10.0 mg/kg/injection, schedule: Q04DX002 (ip), vehicle: saline with Tween-80 104 % of control | dose: 20.0 mg/kg/injection, schedule: Q04DX002 (ip), vehicle: saline with Tween-80 104 % of control
